The values that follow come from the supplement of paper PMC10307832.

Holding throughout (assay): relative viability (nuclei count vs DMSO), 5 days (fraction); higher = more cells survive
Compound in the test “Everolimus + Alpelisib”: CO[C@H]1C[C@@H]2CC[C@@H](C)[C@@](O)(O2)C(=O)C(=O)N2CCCC[C@H]2C(=O)O[C@H]([C@H](C)C[C@@H]2CC[C@@H](OCCO)[C@H](OC)C2)CC(=O)[C@H](C)/C=C(\C)[C@@H](O)[C@@H](OC)C(=O)[C@H](C)C[C@H](C)/C=C/C=C/C=C/1C [Everolimus] + Cc1nc(NC(=O)N2CCC[C@H]2C(N)=O)sc1-c1ccnc(C(C)(C)C(F)(F)F)c1 [Alpelisib] (partner 2 µM)
The method, boiled down: (§1)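 Lung cancer cell lines were pin-tool dosed in 1536-well plates on the day after seeding, with either a lone drug or a fixed anchor-drug dose plus five library-drug doses (not always all listed) in √10 steps. Nuclei were counted on 4× images after 5 days. Relative viability is the ratio of treated-well to vehicle-well nuclei counts, with each value a median of duplicate plates.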

Compound in the test “Everolimus + Bortezomib”: CO[C@H]1C[C@@H]2CC[C@@H](C)[C@@](O)(O2)C(=O)C(=O)N2CCCC[C@H]2C(=O)O[C@H]([C@H](C)C[C@@H]2CC[C@@H](OCCO)[C@H](OC)C2)CC(=O)[C@H](C)/C=C(\C)[C@@H](O)[C@@H](OC)C(=O)[C@H](C)C[C@H](C)/C=C/C=C/C=C/1C [Everolimus] + CC(C)C[C@H](NC(=O)[C@H](Cc1ccccc1)NC(=O)c1cnccn1)B(O)O [Bortezomib] (partner 0.002 µM)
In outline:
as §1

Compound in the test “Everolimus + Dasatinib”: CO[C@H]1C[C@@H]2CC[C@@H](C)[C@@](O)(O2)C(=O)C(=O)N2CCCC[C@H]2C(=O)O[C@H]([C@H](C)C[C@@H]2CC[C@@H](OCCO)[C@H](OC)C2)CC(=O)[C@H](C)/C=C(\C)[C@@H](O)[C@@H](OC)C(=O)[C@H](C)C[C@H](C)/C=C/C=C/C=C/1C [Everolimus] + Cc1nc(Nc2ncc(C(=O)Nc3c(C)cccc3Cl)s2)cc(N2CCN(CCO)CC2)n1 [Dasatinib] (partner 0.075 µM)
In outline:
as §1

Compound in the test “Everolimus + Palbociclib”: CO[C@H]1C[C@@H]2CC[C@@H](C)[C@@](O)(O2)C(=O)C(=O)N2CCCC[C@H]2C(=O)O[C@H]([C@H](C)C[C@@H]2CC[C@@H](OCCO)[C@H](OC)C2)CC(=O)[C@H](C)/C=C(\C)[C@@H](O)[C@@H](OC)C(=O)[C@H](C)C[C@H](C)/C=C/C=C/C=C/1C [Everolimus] + CC(=O)c1c(C)c2cnc(Nc3ccc(N4CCNCC4)cn3)nc2n(C2CCCC2)c1=O [Palbociclib] (partner 0.5 µM)
The method, boiled down: as §1

As for COR-L23, the relative viability in the test with Everolimus + Alpelisib (first compound 0.01 µM) turned out to be 0.492; with Everolimus + Alpelisib (first compound 0.03162 µM), 0.476; with Everolimus + Alpelisib (first compound 0.1 µM), 0.482; with Everolimus + Alpelisib (first compound 0.3162 µM), 0.505; with Everolimus + Alpelisib (first compound 1 µM), 0.567; with Everolimus + Bortezomib (first compound 0.01 µM), 0.788. Further, the relative viability with Everolimus + Bortezomib (first compound 0.03162 µM) is 0.963; with Everolimus + Bortezomib (first compound 0.1 µM), 0.635; in the test with Everolimus + Bortezomib (first compound 0.3162 µM) it was 0.683; with Everolimus + Bortezomib (first compound 1 µM), 0.864; in the test with Everolimus + Dasatinib (first compound 0.01 µM), 0.429; in the test with Everolimus + Dasatinib (first compound 0.03162 µM), 0.498. The relative viability in the test with Everolimus + Dasatinib (first compound 0.1 µM) was 0.432; in the test with Everolimus + Dasatinib (first compound 0.3162 µM), 0.497; with Everolimus + Dasatinib (first compound 1 µM), 0.485; in the test with Everolimus + Palbociclib (first compound 0.01 µM) it was 0.224; with Everolimus + Palbociclib (first compound 0.03162 µM), 0.27; in the test with Everolimus + Palbociclib (first compound 0.1 µM), 0.233. The relative viability in the test with Everolimus + Palbociclib (first compound 0.3162 µM) stood at 0.271; with Everolimus + Palbociclib (first compound 1 µM) it was 0.218.

Consider HCC-78, for which the relative viability in the test with Everolimus + Alpelisib (first compound 0.01 µM) was 0.244; in the test with Everolimus + Alpelisib (first compound 0.03162 µM) it was 0.244; with Everolimus + Alpelisib (first compound 0.1 µM), 0.213; in the test with Everolimus + Alpelisib (first compound 0.3162 µM), 0.234; in the test with Everolimus + Alpelisib (first compound 1 µM), 0.228; with Everolimus + Bortezomib (first compound 0.01 µM), 0.428. Besides, the relative viability with Everolimus + Bortezomib (first compound 0.03162 µM) worked out at 0.375; with Everolimus + Bortezomib (first compound 0.1 µM), 0.384; with Everolimus + Bortezomib (first compound 0.3162 µM), 0.371; in the test with Everolimus + Bortezomib (first compound 1 µM), 0.314; in the test with Everolimus + Dasatinib (first compound 0.01 µM), 0.328; in the test with Everolimus + Dasatinib (first compound 0.03162 µM) it was 0.291. The relative viability in the test with Everolimus + Dasatinib (first compound 0.1 µM) was 0.248; in the test with Everolimus + Dasatinib (first compound 0.3162 µM) it was 0.263; with Everolimus + Dasatinib (first compound 1 µM), 0.343; with Everolimus + Palbociclib (first compound 0.01 µM) it was 0.477; with Everolimus + Palbociclib (first compound 0.03162 µM), 0.489; with Everolimus + Palbociclib (first compound 0.1 µM) it was 0.513. Besides, the relative viability was determined as 0.485 in the test with Everolimus + Palbociclib (first compound 0.3162 µM) and 0.379 with Everolimus + Palbociclib (first compound 1 µM).

As to NCI-H2405, the relative viability came out at 0.452 with Everolimus + Alpelisib (first compound 0.01 µM); 0.475 with Everolimus + Alpelisib (first compound 0.03162 µM); 0.372 with Everolimus + Alpelisib (first compound 0.1 µM); 0.444 with Everolimus + Alpelisib (first compound 0.3162 µM); 0.469 in the test with Everolimus + Alpelisib (first compound 1 µM); 0.783 with Everolimus + Bortezomib (first compound 0.01 µM). Further, the relative viability with Everolimus + Bortezomib (first compound 0.03162 µM) was found to be 1.07; in the test with Everolimus + Bortezomib (first compound 0.1 µM), 0.783; with Everolimus + Bortezomib (first compound 0.3162 µM), 0.726; in the test with Everolimus + Bortezomib (first compound 1 µM) it was 0.744; with Everolimus + Dasatinib (first compound 0.01 µM), 0.207; in the test with Everolimus + Dasatinib (first compound 0.03162 µM), 0.211. Besides, the relative viability with Everolimus + Dasatinib (first compound 0.1 µM) came out at 0.183; in the test with Everolimus + Dasatinib (first compound 0.3162 µM), 0.182; with Everolimus + Dasatinib (first compound 1 µM), 0.209; in the test with Everolimus + Palbociclib (first compound 0.01 µM), 0.336; with Everolimus + Palbociclib (first compound 0.03162 µM), 0.351; with Everolimus + Palbociclib (first compound 0.1 µM), 0.332. Moreover, the values for the relative viability in the test with Everolimus + Palbociclib (first compound 0.3162 µM) and with Everolimus + Palbociclib (first compound 1 µM) were 0.381 and 0.358, respectively.

SK-LU-1: the relative viability stood at 0.46 in the test with Everolimus + Alpelisib (first compound 0.01 µM); 0.471 in the test with Everolimus + Alpelisib (first compound 0.03162 µM); 0.565 with Everolimus + Alpelisib (first compound 0.1 µM); 0.555 with Everolimus + Alpelisib (first compound 0.3162 µM); 0.661 with Everolimus + Alpelisib (first compound 1 µM); 0.674 in the test with Everolimus + Bortezomib (first compound 0.01 µM). Also, the relative viability was determined as 0.742 in the test with Everolimus + Bortezomib (first compound 0.03162 µM); 0.909 with Everolimus + Bortezomib (first compound 0.1 µM); 0.618 with Everolimus + Bortezomib (first compound 0.3162 µM); 0.769 in the test with Everolimus + Bortezomib (first compound 1 µM); 0.16 with Everolimus + Dasatinib (first compound 0.01 µM); 0.166 in the test with Everolimus + Dasatinib (first compound 0.03162 µM). Besides, the relative viability with Everolimus + Dasatinib (first compound 0.1 µM) worked out at 0.177; in the test with Everolimus + Dasatinib (first compound 0.3162 µM) it was 0.176; with Everolimus + Dasatinib (first compound 1 µM), 0.188; with Everolimus + Palbociclib (first compound 0.01 µM), 0.444; with Everolimus + Palbociclib (first compound 0.03162 µM), 0.342; in the test with Everolimus + Palbociclib (first compound 0.1 µM), 0.303. The relative viability with Everolimus + Palbociclib (first compound 0.3162 µM) amounted to 0.318; with Everolimus + Palbociclib (first compound 1 µM) it was 0.298.

With EMC-BAC-2, the relative viability with Everolimus + Alpelisib (first compound 0.01 µM) amounted to 0.499; in the test with Everolimus + Alpelisib (first compound 0.03162 µM), 0.46; with Everolimus + Alpelisib (first compound 0.1 µM), 0.388; with Everolimus + Alpelisib (first compound 0.3162 µM), 0.461; in the test with Everolimus + Alpelisib (first compound 1 µM) it was 0.481; with Everolimus + Bortezomib (first compound 0.01 µM), 0.731. Further, the relative viability was found to be 0.69 with Everolimus + Bortezomib (first compound 0.03162 µM); 0.645 with Everolimus + Bortezomib (first compound 0.1 µM); 0.588 with Everolimus + Bortezomib (first compound 0.3162 µM); 0.616 with Everolimus + Bortezomib (first compound 1 µM); 0.24 with Everolimus + Dasatinib (first compound 0.01 µM); 0.242 in the test with Everolimus + Dasatinib (first compound 0.03162 µM). The relative viability was found to be 0.189 with Everolimus + Dasatinib (first compound 0.1 µM); 0.219 with Everolimus + Dasatinib (first compound 0.3162 µM); 0.278 in the test with Everolimus + Dasatinib (first compound 1 µM); 0.414 with Everolimus + Palbociclib (first compound 0.01 µM); 0.376 in the test with Everolimus + Palbociclib (first compound 0.03162 µM); 0.346 with Everolimus + Palbociclib (first compound 0.1 µM). For the same cell line, the relative viability with Everolimus + Palbociclib (first compound 0.3162 µM) was found to be 0.357; in the test with Everolimus + Palbociclib (first compound 1 µM), 0.324.

Consider LCLC-97TM1, for which the relative viability in the test with Everolimus + Alpelisib (first compound 0.01 µM) came out at 0.204; with Everolimus + Alpelisib (first compound 0.03162 µM), 0.178; in the test with Everolimus + Alpelisib (first compound 0.1 µM), 0.164; in the test with Everolimus + Alpelisib (first compound 0.3162 µM), 0.167; with Everolimus + Alpelisib (first compound 1 µM), 0.139; with Everolimus + Bortezomib (first compound 0.01 µM), 0.607. The relative viability came out at 0.489 with Everolimus + Bortezomib (first compound 0.03162 µM); 0.525 with Everolimus + Bortezomib (first compound 0.1 µM); 0.246 with Everolimus + Bortezomib (first compound 0.3162 µM); 0.495 in the test with Everolimus + Bortezomib (first compound 1 µM); 0.929 in the test with Everolimus + Dasatinib (first compound 0.01 µM); 0.851 with Everolimus + Dasatinib (first compound 0.03162 µM). Also, the relative viability was 0.932 with Everolimus + Dasatinib (first compound 0.1 µM); 0.836 with Everolimus + Dasatinib (first compound 0.3162 µM); 0.917 with Everolimus + Dasatinib (first compound 1 µM); 0.225 with Everolimus + Palbociclib (first compound 0.01 µM); 0.217 in the test with Everolimus + Palbociclib (first compound 0.03162 µM); 0.159 with Everolimus + Palbociclib (first compound 0.1 µM). Moreover, the relative viability with Everolimus + Palbociclib (first compound 0.3162 µM) stood at 0.164; with Everolimus + Palbociclib (first compound 1 µM), 0.173.

With H3255, the relative viability came to 0.526 with Everolimus + Alpelisib (first compound 0.01 µM); 0.412 with Everolimus + Alpelisib (first compound 0.03162 µM); 0.48 with Everolimus + Alpelisib (first compound 0.1 µM); 0.441 with Everolimus + Alpelisib (first compound 0.3162 µM); 0.334 with Everolimus + Alpelisib (first compound 1 µM); 0.518 with Everolimus + Bortezomib (first compound 0.01 µM). For the same cell line, the relative viability with Everolimus + Bortezomib (first compound 0.03162 µM) turned out to be 0.458; with Everolimus + Bortezomib (first compound 0.1 µM) it was 0.359; with Everolimus + Bortezomib (first compound 0.3162 µM), 0.394; in the test with Everolimus + Bortezomib (first compound 1 µM), 0.44; with Everolimus + Dasatinib (first compound 0.01 µM), 0.35; in the test with Everolimus + Dasatinib (first compound 0.03162 µM) it was 0.266. Besides, the relative viability worked out at 0.332 in the test with Everolimus + Dasatinib (first compound 0.1 µM); 0.239 with Everolimus + Dasatinib (first compound 0.3162 µM); 0.335 with Everolimus + Dasatinib (first compound 1 µM); 0.314 with Everolimus + Palbociclib (first compound 0.01 µM); 0.294 with Everolimus + Palbociclib (first compound 0.03162 µM); 0.319 with Everolimus + Palbociclib (first compound 0.1 µM). The relative viability turned out to be 0.322 with Everolimus + Palbociclib (first compound 0.3162 µM) and 0.307 with Everolimus + Palbociclib (first compound 1 µM).
